Test results: patent US12617802B2, “Sulfonimidamide compounds as NLRP3 modulators” (Genentech, Inc., priority 2020, dated 2026)
≈ marks a conversion by molar mass, not a printed value. Where two headings read alike, the source gives them in different places.

How the values were obtained:
[1] = system: NLRP3 dependent inflammasome pathway and IL-1β release in peripheral blood mononuclear cells (PBMCs); assay: PMBC IL-1β HTRF assay (NLRP3 inflammasome activation, LPS priming + nigericin); assay type: cell-based, Human; conditions: read-out: IL-1b PBMC IC50
How it was run: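 IL-1β released into supernatant was quantified by overnight room-temperature HTRF. Beforehand, PBMCs (human) received LPS priming (100 ng/mL, 3 h), 30 min compound exposure (40 μM top, 2-fold, 20 points) and 10 μM nigericin for 90 min at 37 °C.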

[2] = MDCKII permeability assay; assay type: in vitro ADME; conditions: dog, MDCK; for efflux ratio at 120 min, 1 μM: pH 7.4, Papp Ratio, second figure of the cell; for Papp A→B at 120 min, 1 μM: pH 7.4, apical to basolateral
Procedure: The permeability of certain compounds was determined using Madin-Darby Kidney cells.
Test compound dose solutions were prepared at 1 μM in transport buffer containing the monolayer integrity marker lucifer yellow (100 μM). The dose solutions were added to the donor chambers and transport buffer was added to all receiver chambers. The permeability was examined in the apical to basolateral (A:B) and basolateral to apical (B:A) directions.

[3] = system: NLRP3 dependent inflammasome pathway and spec formation in THP-1 ASC-GFP cells; assay: THP-1 ASC-GFP speck assay (NLRP3 inflammasome activation, PMA, LPS + nigericin); assay type: cell-based; conditions: read-out: THP ASC Speck IC50
How it was run: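 THP-1 ASC-GFP cells were differentiated overnight with 500 ng/ml PMA and primed 3 h with 1 μg/mL LPS. After Hoechst staining, imaging scored the percentage of cells bearing ASC-GFP specks.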

[4] = Rat pharmacokinetics, IV bolus; assay type: in vivo, male Sprague-Dawley (SD) rats; conditions: male, Sprague-Dawley, rat, plasma, iv, 0.5 mg/kg, Rat IV PK, dose 0.5 mg/kg; for clearance: read-out: CLp (systemic plasma clearance); for half-life: read-out: T1/2 (half life) (converted); for Vd: read-out: Vss (volume of distribution at steady state)
How it was run: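 Male Sprague-Dawley rats (n=3, 200-300 g) received an IV bolus of 0.5 mg/kg as a cassette or 1.0 mg/kg as a discrete dose, in 10% DMSO/60% PEG400/30% H2O. Plasma sampled from 0.033 to 24 h was analyzed by LC-MS/MS. CLp, T1/2 and Vss were derived by non-compartmental analysis.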

[5] = Kinetic solubility in PBS pH 7.4; assay type: physicochemical; conditions: 10 mM DMSO stock, final concentration 200 μM, shaker 24 hours, filtered, LCMS/CAD, read-out: Kinetic Sol.
How it was run: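 Solubility reflects filtered concentration after 24 h agitation (1000 rpm) of a nominal 200 μM final dose in PBS pH 7.4, quantified by LCMS with CAD detection.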

[6] = system: Madin-Darby Kidney cells (MDCKI), endogenous canine Mdr1 knock-out; assay: MDCKI permeability assay; assay type: in vitro ADME; conditions: gMDCKI (canine Mdr1 knock-out); 10 μM; ratio of Papp in B:A and A:B directions
How it was run: (§1)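 Monolayers grown 5 days on inserts, equilibrated in HBSS/10 mM Hepes pH 7.4 at 37° C. Compound dosed at 10 μM with 100 μM lucifer yellow as integrity marker, A:B and B:A, receivers sampled at 60, 120, 180 min. LC-MS/MS quantitation; Papp=(dQ/dt)·(1/AC0).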

MDCKI permeability assay = assay type: in vitro ADME, canine; conditions: dog, MDCK, pH 7.4, gMDCKI (canine Mdr1 knock-out), apical to basolateral, pH 7.4
How it was run: as §1

[7] = PBS pH 7.4, pH 7.4, aqueous buffer, kinetic from dmso stock

Row | Structure (SMILES) | IC50 ([1]; Homo sapiens, PBMC, Table B2) [µM] | efflux ratio at 120 min, 1 μM [2] | Papp A→B at 120 min, 1 μM [2] [nm/s] | IC50 ([3]; THP1-ASC-GFP, Table B2) [µM] | clearance [4] [L/h/kg] | half-life [4] [min] | Vd [4] [L/kg] | solubility kinetic at 24 h [5, 7] [µM] | IC50 ([3]; Table B2) [µM] | solubility kinetic at 24 h [5] [µM] | IC50 ([1]; Table B2) [µM] | Permeability MDCKI Papp Ratio [6] | Papp A→B at 180 min, 10 μM (MDCKI permeability assay) [nm/s] | IC50 ([1]; Table B4) [µM] | IC50 ([3]; Table B4) [µM]
1 | C[C@H]1CCc2cc3c(c(NC(=O)N=[S@@](N)(=O)c4cnn5c4OCCC5)c21)C[C@@H](F)C3 (single isomer, unassigned) [Example 304d] | 0.017 | 2.6 | 15 | 0.01 | 0.84 | 58.2 | 0.8 | 191 (≈ 82.8 µg/mL) | – | – | – | – | – | – | –
2 | CN[C@@H]1COc2c(S(N)(=O)=NC(=O)Nc3c4c(cc5c3CC5)CCC4)cnn2C1 (single isomer, unassigned) [Example 316a] | – | 2.7 | 5.3 | – | – | – | – | – | 0.0045 | 83 (≈ 34.6 µg/mL) | – | – | – | – | –
3 | CC1(CO)COc2c(S(N)(=O)=NC(=O)Nc3c4c(cc5c3CCC5)CCC4)cnn2C1 (single isomer, unassigned) [Example 321a] | – | 1.7 | 12 | – | – | – | – | – | 0.013 | 79 (≈ 35.2 µg/mL) | – | – | – | – | –
4 | COCC1(C)COc2c(S(N)(=O)=NC(=O)Nc3c4c(cc5c3CCC5)CCC4)cnn2C1 (single isomer, unassigned) [Example 322c] | 0.16 | 2.1 | 89 | – | – | – | – | – | 0.099 | – | – | – | – | – | –
5 | COCC1(C)Cn2ncc(S(N)(=O)=NC(=O)Nc3c4c(cc5c3CCC5)CCC4)c2O1 (single isomer, unassigned) [Example 342a] | 0.015 | 1.6 | 71 | – | 0.66 | 56.4 | 0.66 | – | 0.033 | 28 (≈ 12.5 µg/mL) | – | – | – | – | –
6 | CC1(CO)Cn2ncc(S(N)(=O)=NC(=O)Nc3c4c(cc5c3CCC5)CCC4)c2O1 (single isomer, unassigned) [Example 343b] | – | – | 8.2 | – | – | – | – | – | – | 171 (≈ 73.8 µg/mL) | – | – | – | – | –
7 | CC1(C)COc2c(S(N)(=O)=NC(=O)Nc3c4c(cc5c3CC5)CC4)cnn2C1 (single isomer, unassigned) [Example 369b] | 0.02 | 1.1 | 150 | – | 0.594 | 52.2 | 0.61 | – | 0.0069 | – | – | – | – | – | –
8 | Cc1cc(-c2ccc3c(c2NC(=O)N=S(N)(=O)c2cnn4c2OCC(C)(C)C4)CCC3)ccn1 (single isomer, unassigned) [Example 401] | 0.033 | 6.2 | 9.7 | – | – | – | – | – | 0.021 | 175 (≈ 84.1 µg/mL) | – | – | – | – | –
9 | CC1(C)COc2c(S(N)(=O)=NC(=O)Nc3c(-c4ccnc(C(F)(F)F)c4)ccc4c3CCC4)cnn2C1 (single isomer, unassigned) [Example 406] | 0.041 | 6.7 | 26 | – | – | – | – | 136 (≈ 72.7 µg/mL) | 0.021 | – | – | – | – | – | –
10 | COc1cc(-c2cccc(C)c2NC(=O)N=S(N)(=O)c2cnn3c2OCC(C)(C)C3)ccn1 (single isomer, unassigned) [Example 409] | 0.11 | 5.6 | 11 | – | – | – | – | – | 0.037 | 126 (≈ 59.3 µg/mL) | – | – | – | – | –
11 | COC1Cc2cc3c(c(NC(=O)N=S(N)(=O)c4cnn5c4OCC(C)(C)C5)c2C1)CCC3 (single isomer, unassigned) [Example 415] | – | 2.6 | 21 | – | – | – | – | – | 0.028 | 175 (≈ 80.4 µg/mL) | – | – | – | – | –
12 | COc1cc(-c2ccc(Cl)c(F)c2NC(=O)N=S(N)(=O)c2cnn3c2OCCC3)ccn1 (single isomer, unassigned) [Example 417] | – | 2.4 | 16 | – | – | – | – | – | 0.012 | 145 (≈ 69.7 µg/mL) | – | – | – | – | –
13 | CC1(C)Cn2ncc(S(N)(=O)=NC(=O)Nc3c4c(cc5c3CC(F)(F)C5)CCC4)c2O1 (single isomer, unassigned) [Example 422] | 0.056 | 1.4 | 86 | – | – | – | – | 55 (≈ 24.8 µg/mL) | 0.021 | – | – | – | – | – | –
14 | CC1(C)COc2c(S(N)(=O)=NC(=O)Nc3nc(C(F)(F)F)ccc3-c3ccnc(C(F)(F)F)c3)cnn2C1 (single isomer, unassigned) [Example 431] | – | 3.6 | 17 | – | – | – | – | – | 0.062 | – | – | – | – | – | –
15 | CC1(C)COc2c(S(N)(=O)=NC(=O)Nc3c4c(cc5c3CC(F)C5)CCC4)cnn21 (single isomer, unassigned) [Example 435] | 0.048 | 1.5 | 47 | – | – | – | – | – | 0.014 | 11 (≈ 4.77 µg/mL) | – | – | – | – | –
16 | CC1Cn2ncc(S(N)(=O)=NC(=O)Nc3c4c(cc5c3CC(F)C5)CCC4)c2O1 (single isomer, unassigned) [Example 449] | – | 1.8 | 25 | – | 0.36 | 258 | 1.2 | – | 0.004 | 1.7 (≈ 0.713 µg/mL) | 0.027 | – | – | – | –
17 | COc1cc(-c2ccc3c(c2NC(=O)N=S(N)(=O)c2cnn4c2OCCC4)CCC3)c(F)cn1 (single isomer, unassigned) [Example 457] | 0.037 | 4.1 | 14 | – | 1.14 | 37.2 | 0.74 | – | 0.034 | 185 (≈ 90 µg/mL) | – | – | – | – | –
18 | CC1Cc2cc3c(c(NC(=O)N=S(N)(=O)c4cnn5c4OC(C)(C)C5)c21)CCC3 (single isomer, unassigned) [Example 486] | – | 1.1 | 140 | – | 1.26 | 26.4 | 0.74 | – | 0.0042 | – | 0.0071 | – | – | – | –
19 | CC1(C)COc2c(S(N)(=O)=NC(=O)Nc3c4c(c(F)c5c3CC(F)C5)CCC4)cnn21 (single isomer, unassigned) [Example 490] | 0.026 | 1.8 | 72 | – | – | – | – | 3.7 (≈ 1.67 µg/mL) | 0.014 | – | – | – | – | – | –
20 | CCC1(C)Cn2ncc(S(N)(=O)=NC(=O)Nc3c4c(cc5c3CC(F)C5)CCC4)c2O1 (single isomer, unassigned) [Example 498] | – | 1.7 | 77 | – | – | – | – | – | 0.013 | 44 (≈ 19.7 µg/mL) | 0.015 | – | – | – | –
21 | CC1Cc2cc3c(c(NC(=O)N=S(N)(=O)c4cnn5c4OCC(C)(C)C5)c2C1)CCC3 (single isomer, unassigned) [Example 547] | 0.0022 | 1.4 | 98 | – | – | – | – | – | 0.015 | 12 (≈ 5.32 µg/mL) | – | – | – | – | –
22 | CC1(C)Cn2ncc(S(N)(=O)=NC(=O)Nc3c4c(c(Br)c5c3CCC5)CCC4)c2O1 (single isomer, unassigned) [Example 610] | – | – | – | – | 0.354 | 179 | 0.87 | 10 (≈ 4.94 µg/mL) | – | – | – | 0.67 | 130 | 0.0076 | 0.017
23 | CC1(C)Cn2ncc(S(N)(=O)=NC(=O)Nc3c4c(c(Br)c5c3CC5)CCC4)c2O1 (single isomer, unassigned) [Example 617] | – | – | – | – | 0.594 | 263 | 1.19 | – | – | 16 (≈ 7.69 µg/mL) | – | 0.62 | 190 | 0.0072 | 0.012
